# From US6441195B1, “Substituted sulphonylamino(thio) carbonyl compounds” (Bayer Aktiengesellschaft, priority 1995, dated 2002)
# Tests used:
# Type in all cases: in vivo
# weeds [1] = experiment: Pre-emergence test (greenhouse), activity against weeds; details: in words
# In short: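 Compound formulated in acetone with alkylaryl polyglycol ether emulsifier, diluted in water, and watered onto soil about 24 h after sowing, dosed by application rate per unit area. Damage rated after three weeks as % versus untreated control (0% = no action).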
# Matricaria [2] = experiment: Pre-emergence test/Greenhouse, Matricaria; details: after three weeks
# In short: (§1)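 Compound formulated with solvent and emulsifier, diluted in water, and watered onto soil about 24 h after sowing; application rate per unit area is what counts. Damage rated after three weeks as % versus untreated control (0% = no action).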
# Gallium = experiment: Post-emergence test/greenhouse, Gallium; details: greenhouse, after three weeks
# Experimental: (§2) Solvent: 5 parts by weight of acetone
# (§3) Emulsifier: 1 part by weight of alkylaryl polyglycol ether
# (§4) To produce a suitable preparation of active compound, 1 part by weight of active compound is mixed with the stated amount of solvent, the stated amount of emulsifier is added and the concentrate is diluted with water to the desired concentration.
# (§5) Test plants which have a height of 5-15 cm are sprayed with the preparation of the active compound in such a way as to apply the particular amounts of active compound desired per unit area. The concentration of the spray liquor is chosen so that the particular amounts of active compound desired are applied in 2000 l of water/ha.
# (§6) After three weeks, the degree of damage to the plants is rated in % damage in comparison to the development of the untreated control.
# (§7) 0%=no action (like untreated control)
# Echinochloa = experiment: Post-emergence test/greenhouse, Echinochloa; details: greenhouse, after three weeks
# Experimental: as §2, §3, §4, §5, §6, §7
# Sorghum [3] = experiment: Post-emergence test/greenhouse, Sorghum; details: greenhouse, after three weeks
# Experimental: as §2, §3, §4, §5, §6, §7
# Sorghum [4] = experiment: Pre-emergence test/Greenhouse, Sorghum; details: after three weeks
# In short: as §1
# Matricaria [5] = experiment: Post-emergence test/greenhouse, Matricaria; details: greenhouse, after three weeks
# Experimental: as §2, §3, §4, §5, §6, §7
# Poa = experiment: Pre-emergence test/Greenhouse, Poa; details: after three weeks
# In short: as §1
# Solanum = experiment: Pre-emergence test/Greenhouse, Solanum; details: after three weeks
# In short: as §1
# Lolium [6] = experiment: Pre-emergence test/Greenhouse, Lolium; details: after three weeks
# In short: as §1
# Amaranthus = experiment: Post-emergence test/greenhouse, Amaranthus; details: greenhouse, after three weeks
# Experimental: as §2, §3, §4, §5, §6, §7
# weeds [7] = experiment: Post-emergence test (greenhouse), activity against weeds; details: in words
# Experimental: as §2, §3, §4, §5, §6, §7
# Stellaria = experiment: Post-emergence test/greenhouse, Stellaria; details: greenhouse, after three weeks
# Experimental: as §2, §3, §4, §5, §6, §7
# Ambrosia = experiment: Pre-emergence test/Greenhouse, Ambrosia; details: after three weeks
# In short: as §1
# Maize [8] = experiment: Post-emergence test/greenhouse, Maize; details: greenhouse, after three weeks
# Experimental: as §2, §3, §4, §5, §6, §7
# Lolium [9] = experiment: Post-emergence test/greenhouse, Lolium; details: greenhouse, after three weeks
# Experimental: as §2, §3, §4, §5, §6, §7
# Soya beans = experiment: Pre-emergence test/Greenhouse, Soya beans; details: in vivo
# In short: as §1
# Maize [10] = experiment: Pre-emergence test/Greenhouse, Maize; details: in vivo
# In short: as §1
# Digitaria = experiment: Post-emergence test/greenhouse, Digitaria; details: greenhouse, after three weeks
# Experimental: as §2, §3, §4, §5, §6, §7
smiles,measurement,setting,value
COC(=O)c1cccc(C)c1S(=O)(=O)NC(=O)n1nc(SCCF)n(C2CC2)c1=O [Example 151],activity against weeds,weeds [1],very strong activity against weeds
same,"degree of damage to the plants (% damage vs untreated control), Matricaria",Matricaria [2]; 15 g of ai./ha,90%
same,"degree of damage, Gallium",Gallium; 30 g of ai./ha,90%
same,"degree of damage, Echinochloa",Echinochloa; 30 g of ai./ha,70%
same,"degree of damage, Sorghum",Sorghum [3]; 30 g of ai./ha,90%
same,"degree of damage to the plants (% damage vs untreated control), Sorghum",Sorghum [4]; 15 g of ai./ha,50%
same,"degree of damage, Matricaria",Matricaria [5]; 30 g of ai./ha,90%
same,"degree of damage to the plants (% damage vs untreated control), Poa",Poa; 15 g of ai./ha,90%
same,"degree of damage to the plants (% damage vs untreated control), Solanum",Solanum; 15 g of ai./ha,90%
same,"degree of damage to the plants (% damage vs untreated control), Lolium",Lolium [6]; 15 g of ai./ha,90%
same,"degree of damage, Amaranthus",Amaranthus; 30 g of ai./ha,95%
same,activity against weeds,weeds [7],very strong activity against weeds
same,"degree of damage, Stellaria",Stellaria; 30 g of ai./ha,90%
same,"degree of damage to the plants (% damage vs untreated control), Ambrosia",Ambrosia; 15 g of ai./ha,80%
same,"degree of damage, Maize",Maize [8]; 30 g of ai./ha,60%
same,"degree of damage, Lolium",Lolium [9]; 30 g of ai./ha,60%
same,"degree of damage to the plants (% damage vs untreated control), Soya beans",Soya beans,10%
same,"degree of damage to the plants (% damage vs untreated control), Maize",Maize [10],20%
same,"degree of damage, Digitaria",Digitaria; 30 g of ai./ha,90%
COCc1nn(C(=O)NS(=O)(=O)c2c(C)csc2C(=O)OC)c(=O)n1C [Example 32],activity against weeds,weeds [1],very strong activity against weeds
same,"degree of damage to the plants (% damage vs untreated control), Matricaria",Matricaria [2]; 60 g of ai./ha,95%
same,"degree of damage, Gallium",Gallium; 60 g of ai./ha,70%
same,"degree of damage, Echinochloa",Echinochloa; 60 g of ai./ha,100%
same,"degree of damage, Sorghum",Sorghum [3]; 60 g of ai./ha,95%
same,"degree of damage to the plants (% damage vs untreated control), Sorghum",Sorghum [4]; 60 g of ai./ha,60%
same,"degree of damage, Matricaria",Matricaria [5]; 60 g of ai./ha,80%
same,"degree of damage to the plants (% damage vs untreated control), Poa",Poa; 60 g of ai./ha,95%
same,"degree of damage to the plants (% damage vs untreated control), Solanum",Solanum; 60 g of ai./ha,95%
same,"degree of damage to the plants (% damage vs untreated control), Lolium",Lolium [6]; 60 g of ai./ha,95%
same,"degree of damage, Amaranthus",Amaranthus; 60 g of ai./ha,95%
same,activity against weeds,weeds [7],very strong activity against weeds
same,"degree of damage, Stellaria",Stellaria; 60 g of ai./ha,90%
same,"degree of damage to the plants (% damage vs untreated control), Ambrosia",Ambrosia; 60 g of ai./ha,95%
same,"degree of damage, Maize",Maize [8]; 60 g of ai./ha,70%
same,"degree of damage, Lolium",Lolium [9]; 60 g of ai./ha,70%
same,"degree of damage to the plants (% damage vs untreated control), Soya beans",Soya beans,20%
same,"degree of damage to the plants (% damage vs untreated control), Maize",Maize [10],20%
same,"degree of damage, Digitaria",Digitaria; 60 g of ai./ha,70%
CCOc1nn(C(=O)NS(=O)(=O)c2c(C)cccc2C(=O)OC)c(=O)n1C [Example 163],activity against weeds,weeds [1],very strong activity against weeds
same,"degree of damage, Gallium",Gallium; 60 g of ai./ha,95%
same,"degree of damage, Echinochloa",Echinochloa; 60 g of ai./ha,70%
same,"degree of damage, Sorghum",Sorghum [3]; 60 g of ai./ha,95%
same,"degree of damage to the plants (% damage vs untreated control), Sorghum",Sorghum [4]; 4 g of ai./ha,60%
same,"degree of damage, Matricaria",Matricaria [5]; 60 g of ai./ha,100%
same,"degree of damage to the plants (% damage vs untreated control), Poa",Poa; 4 g of ai./ha,95%
same,"degree of damage to the plants (% damage vs untreated control), Solanum",Solanum; 4 g of ai./ha,90%
same,"degree of damage to the plants (% damage vs untreated control), Lolium",Lolium [6]; 4 g of ai./ha,80%
same,"degree of damage, Amaranthus",Amaranthus; 60 g of ai./ha,100%
same,activity against weeds,weeds [7],very strong activity against weeds
same,"degree of damage, Stellaria",Stellaria; 60 g of ai./ha,95%
same,"degree of damage to the plants (% damage vs untreated control), Ambrosia",Ambrosia; 4 g of ai./ha,80%
same,"degree of damage, Maize",Maize [8]; 60 g of ai./ha,60%
same,"degree of damage, Lolium",Lolium [9]; 60 g of ai./ha,80%
same,"degree of damage to the plants (% damage vs untreated control), Soya beans",Soya beans,0%
same,"degree of damage to the plants (% damage vs untreated control), Maize",Maize [10],20%
same,"degree of damage, Digitaria",Digitaria; 60 g of ai./ha,80%
COC(=O)c1scc(C)c1S(=O)(=O)NC(=O)n1nc(SC)n(C)c1=O [Example 6],activity against weeds,weeds [1],very strong activity against weeds
same,"degree of damage to the plants (% damage vs untreated control), Matricaria",Matricaria [2]; 125 g of ai./ha,95%
same,"degree of damage, Gallium",Gallium; 400 g of ai./ha,90%
same,"degree of damage, Echinochloa",Echinochloa; 400 g of ai./ha,95%
same,"degree of damage, Sorghum",Sorghum [3]; 400 g of ai./ha,80%
same,"degree of damage to the plants (% damage vs untreated control), Sorghum",Sorghum [4]; 125 g of ai./ha,95%
same,"degree of damage, Matricaria",Matricaria [5]; 400 g of ai./ha,100%
same,"degree of damage to the plants (% damage vs untreated control), Poa",Poa; 125 g of ai./ha,95%
same,"degree of damage to the plants (% damage vs untreated control), Solanum",Solanum; 125 g of ai./ha,95%
same,"degree of damage to the plants (% damage vs untreated control), Lolium",Lolium [6]; 125 g of ai./ha,95%
same,"degree of damage, Amaranthus",Amaranthus; 400 g of ai./ha,100%
same,activity against weeds,weeds [7],very strong activity against weeds
same,"degree of damage, Stellaria",Stellaria; 400 g of ai./ha,100%
same,"degree of damage to the plants (% damage vs untreated control), Ambrosia",Ambrosia; 125 g of ai./ha,95%
same,"degree of damage, Maize",Maize [8]; 400 g of ai./ha,20%
same,"degree of damage, Lolium",Lolium [9]; 400 g of ai./ha,95%
same,"degree of damage to the plants (% damage vs untreated control), Maize",Maize [10],0%
same,"degree of damage, Digitaria",Digitaria; 400 g of ai./ha,90%
CCOc1nn(C(=O)NS(=O)(=O)c2c(C)csc2C(=O)OC)c(=O)n1C1CC1 [Example 30],activity against weeds,weeds [1],very strong activity against weeds
same,"degree of damage to the plants (% damage vs untreated control), Matricaria",Matricaria [2]; 30 g of ai./ha,95%
same,"degree of damage, Gallium",Gallium; 60 g of ai./ha,85%
same,"degree of damage, Echinochloa",Echinochloa; 60 g of ai./ha,70%
same,"degree of damage, Sorghum",Sorghum [3]; 60 g of ai./ha,95%
same,"degree of damage to the plants (% damage vs untreated control), Sorghum",Sorghum [4]; 30 g of ai./ha,80%
same,"degree of damage, Matricaria",Matricaria [5]; 60 g of ai./ha,100%
same,"degree of damage to the plants (% damage vs untreated control), Poa",Poa; 30 g of ai./ha,95%
same,"degree of damage to the plants (% damage vs untreated control), Solanum",Solanum; 30 g of ai./ha,95%
same,"degree of damage to the plants (% damage vs untreated control), Lolium",Lolium [6]; 30 g of ai./ha,95%
same,"degree of damage, Amaranthus",Amaranthus; 60 g of ai./ha,100%
same,activity against weeds,weeds [7],very strong activity against weeds
same,"degree of damage, Stellaria",Stellaria; 60 g of ai./ha,100%
same,"degree of damage to the plants (% damage vs untreated control), Ambrosia",Ambrosia; 30 g of ai./ha,95%
same,"degree of damage, Maize",Maize [8]; 60 g of ai./ha,15%
same,"degree of damage, Lolium",Lolium [9]; 60 g of ai./ha,60%
same,"degree of damage to the plants (% damage vs untreated control), Maize",Maize [10],0%
same,"degree of damage, Digitaria",Digitaria; 60 g of ai./ha,90%
